# Data published in US8350027B2, “Dual-acting pyrazole antihypertensive agents” (Theravance, Inc., priority 2009, dated 2013).
# Key:
# NEP enzyme = molecular target: T1, NEP enzyme (Homo sapiens, UniProt P08473); experiment: NEP enzyme inhibition assay (fluorogenic peptide substrate); type: biochemical; settings: values given as lower bounds; * = prodrugs, may not exhibit NEP activity in an in vitro assay; read-out: NEP pIC50 (converted)
# T1 construct: purchased R&D Systems, Minneapolis, Minn; 1182-ZN
# T1 sequence (P08473 52-750 limits assumed): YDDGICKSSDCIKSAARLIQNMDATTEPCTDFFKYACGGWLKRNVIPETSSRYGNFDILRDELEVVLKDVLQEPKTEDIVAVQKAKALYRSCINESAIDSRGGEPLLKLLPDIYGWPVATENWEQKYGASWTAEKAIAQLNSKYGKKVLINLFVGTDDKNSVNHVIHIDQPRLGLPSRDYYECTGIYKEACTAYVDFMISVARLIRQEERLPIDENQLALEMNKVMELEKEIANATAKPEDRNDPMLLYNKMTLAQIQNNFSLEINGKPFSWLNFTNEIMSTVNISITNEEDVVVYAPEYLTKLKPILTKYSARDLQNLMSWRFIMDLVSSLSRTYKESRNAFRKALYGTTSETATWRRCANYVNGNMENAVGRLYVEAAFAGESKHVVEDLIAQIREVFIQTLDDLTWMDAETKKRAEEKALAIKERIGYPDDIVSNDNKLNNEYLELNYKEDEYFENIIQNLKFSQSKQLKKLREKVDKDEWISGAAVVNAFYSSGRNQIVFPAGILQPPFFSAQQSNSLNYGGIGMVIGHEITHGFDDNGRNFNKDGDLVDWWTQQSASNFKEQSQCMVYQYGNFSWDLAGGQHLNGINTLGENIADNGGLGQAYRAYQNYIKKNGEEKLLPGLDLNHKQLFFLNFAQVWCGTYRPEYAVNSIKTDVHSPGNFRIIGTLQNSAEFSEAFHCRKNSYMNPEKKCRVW
# Procedure: B. In Vitro Assays for the Quantitation of Inhibitor Potencies (IC50) at Human and Rat NEP, and Human ACE
# The inhibitory activities of compounds at human and rat NEP and human ACE were determined using in vitro assays as described below.
# Recombinant human NEP and recombinant human ACE were obtained commercially (R&D Systems, Minneapolis, Minn., catalog numbers 1182-ZN and 929-ZN, respectively). The fluorogenic peptide substrate Mca-BK2 (Mca-Arg-Pro-Pro-Gly-Phe-Ser-Ala-Phe-Lys(Dnp)-OH; Johnson et al. (2000) Anal. Biochem. 286: 112-118) was used for the human NEP and ACE assays, and Mca-RRL (Mca-DArg-Arg-Leu-(Dnp)-OH; Medeiros et al. (1997) Braz. J. Med. Biol. Res. 30:1157-1162) was used for the rat NEP assay (both from Anaspec, San Jose, Calif.).
# The assays were performed in 384-well white opaque plates at room temperature using the respective fluorogenic peptides at a concentration of 10 μM in assay buffer (50 mM Tris/HCl at 25° C., 100 mM NaCl, 0.01% Tween-20, 1 μM Zn, 0.025% BSA). […] The rat NEP enzyme preparation was used at a concentration that yielded quantitative proteolysis of 3 μM of Mca-RRL within 20 minutes at room temperature.
# Test compounds were diluted to 12 concentrations from 10 μM to 20 pM in Assay Buffer. Assays were started by adding 25 μL of enzyme to 12.5 μL of test compound at each of the 12 concentrations. Test compounds were allowed to equilibrate with the enzyme for 10 minutes before 12.5 μL of the fluorogenic substrates were added to initiate the reaction. Reactions were terminated by the addition of 10 μL of 3.6% glacial acetic acid after 20 minutes of incubation.
# For sulfhydryl-containing test compounds, the test compounds may be diluted in Assay Buffer containing a 400 μM concentration of tris(2-carboxyethyl)phosphine hydrochloride (Thermo Scientific, Rockford, Ill.) (TCEP). The test compounds are then incubated for 40 minutes at room temperature (to allow for dimer cleavage) before adding the enzyme. Test compounds are then allowed to equilibrate with the enzyme for 20 minutes before adding the fluorogenic substrates. Reactions are terminated as above.
# Plates were read on a fluorometer with excitation and emission wavelengths set to 320 nm and 405 nm, respectively. Raw data (relative fluorescence units) were normalized to % activity from the average high readings (no inhibition, 100% enzyme activity) and average low readings (full inhibition, highest inhibitor concentration, 0% enzyme activity) using three standard NEP and ACE inhibitors, respectively. Nonlinear regression of the normalized data was performed using a one site competition model (GraphPad Software, Inc., San Diego, Calif.). Data were reported as pIC50 values.
# human AT1 receptor = molecular target: T2, human AT1 receptor (Homo sapiens, UniProt P30556); experiment: AT1 radioligand binding assay (displacement of [Eu]AngII); settings: membranes of CHO-K1 cells expressing cloned human AT1 receptor; values given as lower bounds; read-out: AT1 pKi (converted)
# T2 construct: expressed in transfected cells; host or cells: CHO-K1
# T2 sequence (P30556 1-359): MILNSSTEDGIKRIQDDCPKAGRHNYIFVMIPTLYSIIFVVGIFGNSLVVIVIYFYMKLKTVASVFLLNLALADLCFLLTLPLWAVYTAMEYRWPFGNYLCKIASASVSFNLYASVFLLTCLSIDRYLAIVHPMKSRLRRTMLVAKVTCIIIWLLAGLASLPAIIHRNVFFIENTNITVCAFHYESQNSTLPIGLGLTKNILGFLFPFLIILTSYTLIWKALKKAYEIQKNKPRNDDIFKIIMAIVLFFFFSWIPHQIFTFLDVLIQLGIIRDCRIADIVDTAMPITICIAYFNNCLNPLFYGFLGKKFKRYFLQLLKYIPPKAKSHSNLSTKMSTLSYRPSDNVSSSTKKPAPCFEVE
# Procedure: A. AT1 and AT2 Radioligand Binding Assays
# These in vitro assays were used to assess the ability of test compounds to bind to the AT1 and the AT2 receptors.
# Membrane Preparation from Cells Expressing Human AT1 or AT2 Receptors
# Chinese hamster ovary (CHO-K1) derived cell lines stably expressing the cloned human AT1 or AT2 receptors, respectively, were grown in HAM's-F12 medium supplemented with 10% fetal bovine serum, 10 μg/ml penicillin/streptomycin, and 500 μg/ml geneticin in a 5% CO2 humidified incubator at 37° C. AT2 receptor expressing cells were grown in the additional presence of 100 nM PD123,319 (AT2 antagonist). When cultures reached 80-95% confluence, the cells were washed thoroughly in PBS and lifted with 5 mM EDTA. Cells were pelleted by centrifugation and snap frozen in MeOH-dry ice and stored at −80° C. until further use.
# For membrane preparation, cell pellets were resuspended in lysis buffer (25 mM Tris/HCl pH 7.5 at 4° C., 1 mM EDTA, and one tablet of Complete Protease Inhibitor Cocktail Tablets with 2 mM EDTA per 50 mL buffer (Roche cat.#1697498, Roche Molecular Biochemicals, Indianapolis, Ind.)) and homogenized using a tight-fitting Dounce glass homogenizer (10 strokes) on ice. The homogenate was centrifuged at 1000×g, the supernatant was collected and centrifuged at 20,000×g. The final pellet was resuspended in membrane buffer (75 mM Tris/HCl pH 7.5, 12.5 mM MgCl2, 0.3 mM EDTA, 1 mM EGTA, 250 mM sucrose at 4° C.) and homogenized by extrusion through a 20G gauge needle. Protein concentration of the membrane suspension was determined by the method described in Bradford (1976) Anal Biochem. 72:248-54. Membranes were snap frozen in MeOH-dry ice and stored at −80° C. until further use.
# Ligand Binding Assay to Determine Compound Affinities for the Human AT1 and AT2 Angiotensin Receptors
# Binding assays were performed in 96-well Acrowell filter plates (Pall Inc., cat.#5020) in a total assay volume of 100 μL with 0.2 μg membrane protein for membranes containing the human AT1 receptor, or 2 μg membrane protein for membranes containing the human AT2 receptor in assay buffer (50 mM Tris/HCl pH 7.5 at 20° C., 5 mM MgCl2, 25 μM EDTA, 0.025% BSA). Saturation binding studies for determination of Kd values of the ligand were done using N-terminally Europium-labeled angiotensin-II ([Eu]AngII, H-(Eu-N^1)-Ahx-Asp-Arg-Val-Tyr-Ile-His-Pro-Phe-OH; PerkinElmer, Boston, Mass.) at 8 different concentrations ranging from 0.1 nM to 30 nM. […] Drugs were dissolved to a concentration of 1 mM in DMSO and from there serially diluted into assay buffer. Non-specific binding was determined in the presence of 10 μM unlabeled angiotensin-II. Assays were incubated for 120 minutes in the dark, at room temperature or 37° C., and binding reactions were terminated by rapid filtration through the Acrowell filter plates followed by three washes with 200 μL ice cold wash buffer (50 mM Tris/HCl pH 7.5 at 4° C., 5 mM MgCl2) using a Waters filtration manifold. Plates were tapped dry and incubated with 50 μl DELFIA Enhancement Solution (PerkinElmer cat.#4001-0010) at room temperature for 5 minutes on a shaker. Filter-bound [Eu]AngII was quantitated immediately on a Fusion plate reader (PerkinElmer) using Time Resolved Fluorescence (TRF). Binding data were analyzed by nonlinear regression analysis with the GraphPad Prism Software package (GraphPad Software, Inc., San Diego, Calif.) using the 3-parameter model for one-site competition. The BOTTOM (curve minimum) was fixed to the value for nonspecific binding, as determined in the presence of 10 μM angiotensin II. Ki values for drugs were calculated from observed IC50 values and the Kd value of [Eu]AngII according to the Cheng-Prusoff equation described in Cheng et al. (1973) Biochem Pharmacol. 22 (23):3099-108. Selectivities of test compounds for the AT1 receptor over the AT2 receptor were calculated as the ratio of AT2Ki/AT1Ki. […]
Structure (SMILES),IC50 (NEP enzyme),Ki (human AT1 receptor)
"CCCc1cc(C(=O)N[C@H](Cc2ccccc2)[C@@H](O)C(=O)O)nn1Cc1ccc(-c2ccccc2-c2nnn[nH]2)cc1 [Example 1, (2R,3R)-3-(1-((2′-(1H-tetrazol-5-yl)biphenyl-4-yl)methyl)-5-propyl-1H-pyrazole-3-carboxamido)-2-hydroxy-4-phenylbutanoic Acid]",≤ 1000 nM,≤ 10 nM
"CCCc1cc(C(=O)N[C@H](Cc2ccccc2)[C@@H](O)C(=O)O)nn1Cc1ccc(-c2ccccc2S(=O)(=O)NC(=O)c2ccccc2F)cc1 [Example 7-3, (2R,3R)-3-({1-[2′-(2-Fluorobenzoylsulfamoyl)biphenyl-4-ylmethyl]-5-propyl-1H-pyrazole-3-carbonyl}amino)-2-hydroxy-4-phenylbutyric acid]",≤ 1000 nM,≤ 10 nM
"CCCc1cc(C(=O)N[C@@H](CC(=O)O)Cc2ccccc2)nn1Cc1ccc(-c2ccccc2-c2nnn[nH]2)cc1F [Example 3-30, (R)-3-({1-[3-Fluoro-2′-(1H-tetrazol-5-yl)biphenyl-4-ylmethyl]-5-propyl-1H-pyrazole-3-carbonyl}amino)-4-phenylbutyric acid]",≤ 10000 nM,≤ 10 nM
"CCCc1cc(C(=O)N[C@@H](CS)CC(C)C)nn1Cc1ccc(-c2ccccc2-c2nnn[nH]2)cc1F [Example 3-3, 1-[3-Fluoro-2′-(1H-tetrazol-5-yl)biphenyl-4-ylmethyl]-5-propyl-1H-pyrazole-3-carboxylic acid ((R)-1-mercaptomethyl-3-methylbutyl)amide]",≤ 100 nM,≤ 100 nM
"CCCc1cc(C(=O)N[C@@H](CS)Cc2ccccc2)nn1Cc1ccc(-c2ccccc2S(=O)(=O)NC(C)=O)cc1 [Example 6-5, 1-(2′-Acetylsulfamoylbiphenyl-4-ylmethyl)-5-propyl-1H-pyrazole-3-carboxylic acid ((R)-1-benzyl-2-mercaptoethyl)amide]",≤ 100 nM,≤ 10 nM
"CCCc1cc(C(=O)N[C@@H](CC(=O)O)Cc2ccccc2F)nn1Cc1ccc(-c2ccccc2-c2nnn[nH]2)cc1 [Example 3-33, (R)-4-(2-Fluorophenyl)-3-({5-propyl-1-[2′-(1H-tetrazol-5-yl)biphenyl-4-ylmethyl]-1H-pyrazole-3-carbonyl}amino)butyric acid]",≤ 10000 nM,≤ 10 nM

# Continued, values first:
IC50 (NEP enzyme),Ki (human AT1 receptor),Structure (SMILES)
≤ 1000 nM,≤ 10 nM,"CCCc1cc(C(=O)N[C@H](Cc2ccccc2)[C@@H](O)C(=O)O)nn1Cc1ccc(-c2ccccc2S(=O)(=O)NC(=O)c2ccncc2)cc1 [Example 7-4, (2R,3R)-2-Hydroxy-4-phenyl-3-[(5-propyl-1-{2′-[(pyridine-4-carbonyl)sulfamoyl]biphenyl-4-ylmethyl}-1H-pyrazole-3-carbonyl)amino]butyric acid]"
≤ 100 nM,≤ 100 nM,"CCOc1cc(C(=O)N[C@@H](CS)Cc2ccccc2)nn1Cc1ccc(-c2ccccc2C(=O)O)cc1F [Example 9-2, 4′-[3-((R)-1-Benzyl-2-mercaptoethylcarbamoyl)-5-ethoxypyrazol-1-ylmethyl]-3′-fluorobiphenyl-2-carboxylic acid]"
≤ 100 nM,≤ 100 nM,"CCCc1cc(C(=O)N[C@@H](CS)Cc2ccccc2)nn1Cc1ccc(-c2ccccc2S(=O)(=O)NC(C)=O)nc1 [Example 14-3, 1-[6-(2-Acetylsulfamoyl-phenyl)pyridin-3-ylmethyl]-5-propyl-1H-pyrazole-3-carboxylic acid ((R)-1-benzyl-2-mercaptoethyl)amide]"
≤ 1000 nM,≤ 10 nM,"CCCc1cc(C(=O)N[C@@H](CC(=O)O)Cc2ccccc2Cl)nn1Cc1ccc(-c2ccccc2S(=O)(=O)NC(C)=O)nc1 [Example 14-14, (R)-3-({1-[6-(2-Acetylsulfamoylphenyl)-pyridin-3-ylmethyl]-5-propyl-1H-pyrazole-3-carbonyl}-amino)-4-(2-chlorophenyl)butyric acid]"
≤ 1000 nM,≤ 10 nM,"CCCc1cc(C(=O)N[C@H](Cc2ccccc2)[C@@H](O)C(=O)O)nn1Cc1ccc(-c2ccccc2S(=O)(=O)NC(=O)c2ccccc2)cc1 [Example 7-12, (2R,3R)-3-{[1-(2′-Benzoylsulfamoylbiphenyl-4-ylmethyl)-5-propyl-1H-pyrazole-3-carbonyl]amino}-2-hydroxy-4-phenylbutyric acid]"
≤ 1000 nM,≤ 10 nM,"CCCc1cc(C(=O)N[C@H](Cc2ccccc2)[C@@H](O)C(=O)O)nn1Cc1ccc(-c2ccccc2S(=O)(=O)NC(=O)c2cc(C)on2)cc1 [Example 7-5, (2R,3R)-2-Hydroxy-3-[(1-{2′[(5-methylisoxazole-3-carbonyl)sulfamoyl]biphenyl-4-ylmethyl}-5-propyl-1H-pyrazole-3-carbonyl)amino]-4-phenylbutyric acid]"
